Source: patent publication US8314132B2, “5-aryl-4-(5-substituted 2,4-dihydroxyphenyl)-1,2,3-thiadiazoles as inhibitors of Hsp90 chaperone and the intermediates for production thereof” (Biotechnologijos Institutas, priority 2008, dated 2012)

Experiments:
[1] = tested on: U2OS (osteosarcoma) cells; assay: Growth inhibition (GI50), XTT cell viability assay, U2OS; format: cell-based; conditions: Homo sapiens, 72 h, 3 days, read-out: growth inhibition constants (GI50), U2OS
Procedure: (§1) The growth inhibition constants of the compounds were determined in two cancer cell lines: U2OS (osteosarcoma) and HeLa (cervical carcinoma). Cells were maintained in DMEM (HeLa) and a 50-50% mixture of DMEM and F-12 media (U2OS) supplemented with 10% fetal bovine serum. Stock solutions (20 mM) of the tested compounds were prepared in 100% dimethyl-sulfoxide (DMSO). Cells, cultured in 24-well plates, were subjected to a range of concentrations of the compounds ([…]) at 0.25% DMSO. After 3 days, cell viability was assayed using XTT (sodium salt of 2,3-bis[2-Methoxy-4-nitro-5-sulfophenyl]-2H-tetrazolium-5-carboxyanilide inner salt) and PMS (phenazine methosulfate) reagents (Scudiero et al. 1988. Cancer Res. 48, 4827-4833). Stock solutions of XTT (1 mg/ml) and PMS (1.53 mg/ml) were prepared in Hank's buffered saline (HBS). Culture medium in each well was replaced by 100 μl of OptiMEM media (Life technologies) containing 35 μg/ml XTT and 0.27 μg/ml PMS. Cells were returned to the incubator for 15-20 min. Quantity of viable cells in each well was evaluated spectrophotometrically measuring the absorbance of XTT formazan at 470 nm. Each experiment was run in duplicate.

[2] = tested on: HeLa (cervical carcinoma) cells; assay: Growth inhibition (GI50), XTT cell viability assay, HeLa; format: cell-based; conditions: Homo sapiens, 72 h, 3 days, read-out: GI50 constants, HeLa
Procedure: as §1

SMILES | GI50 [1] | GI50 [2]
COc1ccc(-c2snnc2-c2cc(Cl)c(O)cc2O)cc1 [compound 3a, 4-(5-chloro-2,4-dihydroxyphenyl)-5-(4-methoxyphenyl)-1,2,3-thiadiazole] | 8.4 ± 1.2 µM | 2.5 ± 0.1 µM
CCOc1ccc(-c2snnc2-c2cc(Cl)c(O)cc2O)cc1 [compound 3b, 4-(5-chloro-2,4-dihydroxyphenyl)-5-(4-ethoxyphenyl)-1,2,3-thiadiazole] | 15.1 ± 3.4 µM | 4.2 ± 0.4 µM
COc1ccc(-c2snnc2-c2cc(Cl)c(O)cc2O)cc1OC [compound 3d, 4-(5-chloro-2,4-dihydroxyphenyl)-5-(3,4-dimethoxyphenyl)-1,2,3-thiadiazole] | 11.5 ± 0.1 µM | 3.6 ± 0.3 µM

Stronger by GI50 [1], values ahead:

GI50 [1] | GI50 [2] | SMILES
7.1 ± 0.1 µM | 3.3 ± 0.1 µM | Cc1ccc(-c2snnc2-c2cc(Cl)c(O)cc2O)cc1 [compound 3c, 4-(5-chloro-2,4-dihydroxyphenyl)-5-(4-methylphenyl)-1,2,3-thiadiazole]
0.65 ± 0.08 µM | 0.7 ± 0.04 µM | CCOc1ccc(-c2snnc2-c2cc(CC)c(O)cc2O)cc1 [compound 3e, 4-(5-ethyl-2,4-dihydroxyphenyl)-5-(4-ethoxyphenyl)-1,2,3-thiadiazole]
